Data taken from ChEMBL document CHEMBL1148050, “Sigmoidins J and K, two new prenylated isoflavonoids from Erythrina sigmoidea” (1994).
Converted amounts (≈) assume the structure as drawn.

Legend:
Type in all cases: functional
[1] = tested on: Aspergillus fumigatus; assay: Antifungal activity against Aspergillus fumigatus
[2] = tested on: Staphylococcus aureus; assay: Antibacterial activity against Staphylococcus aureus
[3] = tested on: Cryptococcus neoformans; assay: Antifungal activity against Cryptococcus neoformans

CC(C)=CCc1cc(-c2coc3cc(O)ccc3c2=O)ccc1O [NEOBAVAISOFLAVONE]
MIC [1]: 50 µg/mL (≈ 155 µM) | MIC [2]: 3.2 µg/mL (≈ 9.93 µM) | MIC [3]: 50 µg/mL (≈ 155 µM)
